Assay results: ChEMBL document CHEMBL2021806, “GnRH-III based multifunctional drug delivery systems containing daunorubicin and methotrexate” (Eur J Med Chem, 2012)
Calls of active or inactive are those of the source. The rule behind the calls is not given here.

Key:
MCF7 = assay: Cytostatic activity against human MCF7 cells after 4 days by MTT assay; format: functional, cell-based; settings: MCF7, 96 h
LNCaP = assay: Cytostatic activity against human LNCAP cells after 4 days by MTT assay; format: functional, cell-based; settings: 96 h
[1] = Drug metabolism in rat lysosomal homogenate assessed as large peptide fragment EHWK(MTX)HDWK(Ac)-OH formation at 0.1 ug/ul after 24 hrs by LC-MS analysis; format: ADME, tissue-based, Lysosome; settings: tissue homogenate
HT-29 = assay: Cytostatic activity against human HT-29 cells after 4 days by MTT assay; format: functional, cell-based; settings: HT-29, 96 h
Serum [2] = assay: Metabolic stability in human serum at 10 uM after 24 hrs by RP-HPLC analysis; format: ADME, cell-free
MONO-MAC-6 [3] = assay: Antiproliferative activity against human MONO-MAC-6 cells assessed as cell viability at 10^-6 M after 24 hrs by cell counting method relative to untreated control; format: functional
MONO-MAC-6 [4] = assay: Antiproliferative activity against human MONO-MAC-6 cells assessed as inhibition of cell viability at 10^-7 M after 48 hrs by cell counting method; format: functional; settings: MONO-MAC-6, 48 h, values are per cent of control
MONO-MAC-6 [5] = assay: Antiproliferative activity against human MONO-MAC-6 cells assessed as cell viability at 10^-7 to 10^-6 M after 72 hrs by cell counting method relative to untreated control; format: functional
MONO-MAC-6 [6] = assay: Induction of adhesion in human MONO-MAC-6 cells at 10^-11 to 10^-12 M after 24 hrs by electrical impedence method relative to control; format: functional, cell-based
MONO-MAC-6 [7] = assay: Antiproliferative activity against human MONO-MAC-6 cells assessed as inhibition of cell viability at 10^-9 M after 24 hrs by cell counting method; format: functional; settings: MONO-MAC-6, 24 h, values are per cent of control
MONO-MAC-6 [8] = assay: Antiproliferative activity against human MONO-MAC-6 cells assessed as inhibition of cell viability at 10^-7 M after 72 hrs by cell counting method; format: functional; settings: MONO-MAC-6, 72 h, values are per cent of control
MONO-MAC-6 [9] = assay: Induction of adhesion in human MONO-MAC-6 cells at 10^-9 to 10^-6 M after 24 hrs by electrical impedence method relative to control; format: functional
MONO-MAC-6 [10] = assay: Antiproliferative activity against human MONO-MAC-6 cells assessed as inhibition of cell viability at 10^-9 M after 48 hrs by cell counting method; format: functional; settings: MONO-MAC-6, 48 h, values are per cent of control
MONO-MAC-6 [11] = assay: Antiproliferative activity against human MONO-MAC-6 cells assessed as inhibition of cell viability at 10^-7 M after 24 hrs by cell counting method; format: functional; settings: MONO-MAC-6, 24 h, values are per cent of control
MONO-MAC-6 [12] = assay: Antiproliferative activity against human MONO-MAC-6 cells assessed as inhibition of cell viability at 10^-9 M after 72 hrs by cell counting method; format: functional; settings: MONO-MAC-6, 72 h, values are per cent of control
MONO-MAC-6 [13] = assay: Antiproliferative activity against human MONO-MAC-6 cells assessed as inhibition of cell viability at 10^-6 M after 72 hrs by cell counting method; format: functional; settings: MONO-MAC-6, 72 h, values are per cent of control
MONO-MAC-6 [14] = assay: Antiproliferative activity against human MONO-MAC-6 cells assessed as cell viability at 10^-7 to 10^-6 M after 48 hrs by cell counting method relative to untreated control; format: functional
MONO-MAC-6 [15] = assay: Antiproliferative activity against human MONO-MAC-6 cells assessed as cell viability at 10^-6 M after 72 hrs by cell counting method relative to untreated control; format: functional
MONO-MAC-6 [16] = assay: Antiproliferative activity against human MONO-MAC-6 cells assessed as inhibition of cell viability at 10^-6 M after 48 hrs by cell counting method; format: functional; settings: MONO-MAC-6, 48 h, values are per cent of control
MONO-MAC-6 [17] = assay: Antiproliferative activity against human MONO-MAC-6 cells assessed as inhibition of cell viability at 10^-8 M after 48 hrs by cell counting method; format: functional; settings: MONO-MAC-6, 48 h, values are per cent of control
MONO-MAC-6 [18] = assay: Antiproliferative activity against human MONO-MAC-6 cells assessed as inhibition of cell viability at 10^-8 M after 24 hrs by cell counting method; format: functional; settings: MONO-MAC-6, 24 h, values are per cent of control
MONO-MAC-6 [19] = assay: Antiproliferative activity against human MONO-MAC-6 cells assessed as inhibition of cell viability at 10^-6 M after 24 hrs by cell counting method; format: functional; settings: MONO-MAC-6, 24 h, values are per cent of control
MONO-MAC-6 [20] = assay: Antiproliferative activity against human MONO-MAC-6 cells assessed as inhibition of cell viability at 10^-8 M after 72 hrs by cell counting method; format: functional; settings: MONO-MAC-6, 72 h, values are per cent of control
MONO-MAC-6 [21] = assay: Induction of adhesion in human MONO-MAC-6 cells after 24 hrs by electrical impedence method; format: functional, cell-based
Serum [22] = assay: Metabolic stability in human serum at 10 uM after 24 hrs by LC-MS analysis; format: ADME, cell-free
MONO-MAC-6 [23] = assay: Antiproliferative activity against human MONO-MAC-6 cells assessed as cell viability at 10^-6 M after 48 hrs by cell counting method relative to untreated control; format: functional
[24] = Drug metabolism in rat lysosomal homogenate assessed as H-Lys(Dau=Aoa)-OH formation at 0.1 ug/ul after 24 hrs by LC-MS analysis; format: ADME, tissue-based, Lysosome; settings: tissue homogenate
MONO-MAC-6 [25] = assay: Induction of adhesion in human MONO-MAC-6 cells at 10^-9 M after 24 hrs by electrical impedence method relative to control; format: functional
MONO-MAC-6 [26] = assay: Induction of adhesion in human MONO-MAC-6 cells at 10^-7 M after 1.5 hrs by electrical impedence method relative to control; format: functional
MONO-MAC-6 [27] = assay: Antiproliferative activity against human MONO-MAC-6 cells assessed as cell viability at 10^-7 M after 24 hrs by cell counting method relative to untreated control; format: functional
[28] = Antitumor activity against mouse C26 cells allografted in Balb/C mouse assessed as tumor growth inhibition; format: functional
MONO-MAC-6 [29] = assay: Induction of adhesion in human MONO-MAC-6 cells at 10^-8 to 10^-6 M after 24 hrs by electrical impedence method relative to control; format: functional
MONO-MAC-6 [30] = assay: Antiproliferative activity against human MONO-MAC-6 cells assessed as cell viability at 10^-9 to 10^-6 M after 48 hrs by cell counting method relative to untreated control; format: functional
MONO-MAC-6 [31] = assay: Antiproliferative activity against human MONO-MAC-6 cells assessed as cell viability at 10^-9 to 10^-6 M after 72 hrs by cell counting method relative to untreated control; format: functional
MONO-MAC-6 [32] = assay: Induction of adhesion in human MONO-MAC-6 cells at 10^-7 to 10^-6 M after 24 hrs by electrical impedence method relative to control; format: functional, cell-based
[33] = Drug metabolism in rat lysosomal homogenate assessed as H-Lys(MTX)HDWK(Dau=Aoa)P-OH formation at 0.1 ug/ul after 24 hrs by LC-MS analysis; format: ADME, tissue-based, Lysosome; settings: tissue homogenate

SMILES | IC50 (MCF7) [µM] | IC50 (LNCaP) [µM] | IC50 (HT-29) [µM] | Ratio (MONO-MAC-6 [3]) | viability, % of control at 0.1 µM (MONO-MAC-6 [4]) [%] | viability, % of control at 0.001 µM (MONO-MAC-6 [7]) [%] | viability, % of control at 0.1 µM (MONO-MAC-6 [8]) [%] | viability, % of control at 0.001 µM (MONO-MAC-6 [10]) [%] | viability, % of control at 0.1 µM (MONO-MAC-6 [11]) [%] | viability, % of control at 0.001 µM (MONO-MAC-6 [12]) [%] | viability, % of control at 1 µM (MONO-MAC-6 [13]) [%] | Ratio (MONO-MAC-6 [15]) | viability, % of control at 1 µM (MONO-MAC-6 [16]) [%] | viability, % of control at 0.01 µM (MONO-MAC-6 [17]) [%] | viability, % of control at 0.01 µM (MONO-MAC-6 [18]) [%] | viability, % of control at 1 µM (MONO-MAC-6 [19]) [%] | viability, % of control at 0.01 µM (MONO-MAC-6 [20]) [%] | Stability (Serum [22]) | Ratio (MONO-MAC-6 [23]) | Activity (MONO-MAC-6 [25]) [%] | other results
CC(=O)NCCCC[C@H](NC(=O)[C@H](Cc1c[nH]c2ccccc12)NC(=O)[C@H](CC(=O)O)NC(=O)[C@H](Cc1cnc[nH]1)NC(=O)[C@H](CCCCNC(=O)[C@H](CCC(=O)O)NC(=O)c1ccc(N(C)Cc2cnc3nc(N)nc(N)c3n2)cc1)NC(=O)[C@H](Cc1c[nH]c2ccccc12)NC(=O)[C@H](Cc1cnc[nH]1)NC(=O)[C@@H]1CCC(=O)N1)C(=O)N1CCC[C@H]1C(=O)NCC(N)=O | > 50 | > 50 | > 50 |  |  |  |  |  |  |  |  |  |  |  |  |  |  |  |  |  | Drug metabolism [1]: Active; Stability (Serum [2]): Stable
CN(Cc1cnc2nc(N)nc(N)c2n1)c1ccc(C(=O)N[C@@H](CCC(=O)O)C(=O)O)cc1 [METHOTREXATE] |  | 0.3 | 1.4 | 0.95 | 52 | 101 | 27 | 97 | 89 | 96 | 29 | 0.77 | 52 | 94 | 102 | 80 | 60 |  |  |  | Ratio (MONO-MAC-6 [5]): 0.76; Activity (MONO-MAC-6 [6]): Active; Activity (MONO-MAC-6 [9]): 140%; Ratio (MONO-MAC-6 [14]): 0.98
COc1cccc2c1C(=O)c1c(O)c3c(c(O)c1C2=O)C[C@@](O)(/C(C)=N/OCC(=O)NCCCC[C@H](NC(=O)[C@H](Cc1c[nH]c2ccccc12)NC(=O)[C@H](CC(=O)O)NC(=O)[C@H](Cc1cnc[nH]1)NC(=O)[C@H](CCCCNC(=O)[C@H](CCC(=O)O)NC(=O)c1ccc(N(C)Cc2cnc4nc(N)nc(N)c4n2)cc1)NC(=O)[C@H](Cc1c[nH]c2ccccc12)NC(=O)[C@H](Cc1cnc[nH]1)NC(=O)[C@@H]1CCC(=O)N1)C(=O)N1CCC[C@H]1C(=O)NCC(N)=O)C[C@@H]3O[C@H]1C[C@H](N)[C@H](O)[C@H](C)O1 | 5.8 | 28.8 | 3.6 | 1.06 | 94 | 108 | 104 | 89 | 98 | 81 | 76 | 0.95 | 86 | 92 | 103 | 88 | 103 | Stable | 0.98 | 135 | Activity (MONO-MAC-6 [21]): Dose-dependent effect; Drug metabolism [24]: Active
COc1cccc2c1C(=O)c1c(O)c3c(c(O)c1C2=O)C[C@@](O)(C(C)=O)C[C@@H]3O[C@H]1C[C@H](N)[C@H](O)[C@H](C)O1 [DAUNORUBICIN] | 0.4 | 0.1 | 0.2 |  | 26 | 97 | 14 | 36 | 59 | 21 | 16 |  | 27 | 35 | 95 | 46 | 17 |  |  |  | Activity (MONO-MAC-6 [26]): 142%; Ratio (MONO-MAC-6 [27]): 0.85; growth inhibition (GI) [28]: 24.4%; Activity (MONO-MAC-6 [29]): 121%; Ratio (MONO-MAC-6 [30]): 0.45; Ratio (MONO-MAC-6 [31]): 0.49
COc1cccc2c1C(=O)c1c(O)c3c(c(O)c1C2=O)C[C@@](O)(/C(C)=N/OCC(=O)NCCCC[C@H](NC(=O)[C@H](CCC(=O)O)NC(=O)c1ccc(N(C)Cc2cnc4nc(N)nc(N)c4n2)cc1)C(=O)NCCCC[C@H](NC(=O)[C@H](Cc1c[nH]c2ccccc12)NC(=O)[C@H](CC(=O)O)NC(=O)[C@H](Cc1cnc[nH]1)NC(=O)[C@H](CO)NC(=O)[C@H](Cc1c[nH]c2ccccc12)NC(=O)[C@H](Cc1cnc[nH]1)NC(=O)[C@@H]1CCC(=O)N1)C(=O)N1CCC[C@H]1C(=O)NCC(N)=O)C[C@@H]3O[C@H]1C[C@H](N)[C@H](O)[C@H](C)O1 | 5.4 | 11.3 | 5.6 | 1 | 97 | 116 | 94 | 93 | 105 | 99 | 38 | 0.77 | 63 | 91 | 128 | 82 | 97 | Stable | 0.9 | 77.6 | Activity (MONO-MAC-6 [32]): inactive; Drug metabolism [33]: Active
